Measured values published in patent US5217952A, “Peptides WS-9326a and WS-9326b, derivatives thereof and uses thereof” (Fujisawa Pharmaceutical Co., Ltd., priority 1988, dated 1993).
Numbered stars: 1 amine (or outer) side, 2 acyl side, 3 side chain; on linkers, the order of the positions; unused ones are H or OH. Bridge positions count the residues as written; N and C are the ends. Square brackets hold non-standard residues; d marks the D form. Peptide text beside a SMILES is read from it. * marks the point of attachment. Cinnamoyl(2-(1Z-pentenyl)) = CCC/C=C\c1ccccc1/C=C/C(=O)*; X1 = CN(/C(=C/c1ccc(O)cc1)C(=O)[*:2])[*:1]; NMeY = CN[C@@H](Cc1ccc(O)cc1)C(=O)O; aThr = C[C@H](O)[C@H](N)C(=O)O; X2 = CCCCCc1ccccc1CCC(=O)*

Key:
[1] = Solubility (physical and chemical properties); assay type: physicochemical
[2] = biological target: T1, specific [^3 H] substance P binding to guinea pig lung membranes (Cavia porcellus, UniProt P30547); experiment: ^3H-Substance P binding to guinea pig lung membranes (radioligand binding assay); details: 3H-Substance P 1 nM, 4° C., 30 minutes, read-out: IC50 (M) lung, displacement of specific [3H] substance P binding
T1 construct: The trachea and lungs were removed, and stored at -80° C. until use; from tissue; host or cells: guinea pig trachea and lung crude membrane fraction
Protocol: Male albino Hartley strain guinea pigs (600 g) were sacrificed by decapitation. The trachea and lungs were removed, and stored at -80° C. until use. […] The tissue was homogenized with a Ultra-Disperser (YAMATO, MODEL LK-21) at a setting of maximum range for 10-s at 10-s intervals with cooling between homogenizations (total homogenization's time: 60 seconds). The homogenate was centrifuged (900×g for 10 min.) to remove tissue supernatant centrifuged at 14000×g for 20 min. to yield pellets which were referred to as crude membrane fractions. The pellets were resuspended in Medium I, homogenized with a teflon homogenizer and centrifuged at 14000×g for 20 min. The pellets were stored at -20° C.
^3 H-Substance P (1 nM, New England Nuclear) was incubated with 50 μl of the membrane preparation in medium I at 4° C. for 30 minutes in a final volume of 250 μl. At the end of the incubation period, its contents were quickly filtered over a whatmann GF/B glass fibre filter (pretreated with 0.1% polyethyleneimine for 3 hours prior to use) using cell harvester (BRANDEL M-24S). The filters were then washed ten times with a total of 3 ml of the washing buffer (50 mM Tris-HCl pH 7.5) at 0° C. The radioactivity was counted in 3 ml of Aquazol-2 in Packard sintillation counter (PACKARD TRI-CARB 4530).

[3] = system: capsaicin induced bronchoconstriction; experiment: Capsaicin induced bronchoconstriction, drug iv; assay type: in vivo, guinea-pigs; details: 10 mg/kg, n:4
Protocol: (§1) Male Hartley strain guinea-pigs weighing 300-500 g were immobilized with sodium pentobarbital (10 mg/animal administered intraperitoneally). The jugular vein was cannulated for administration of neurokinin A (or capsaicin) and drug. A catheter was also intubated into trachea for artifical ventilation. The animal was respirated by means of a miniature respiration pump (HARVARD B-34, 5 ml/stroke, 60 strokes/minute). Resistance to lung inflation was measured by a modification of Konzett-Rossler overflow technique.
(§2) Agonist was administered iv and the antagonist drug (prepared in 0.1% methyl cellulose-saline) was administered iv as shown below. [drawing 7]

[4] = system: neurokinin A induced bronchoconstriction; experiment: Neurokinin A induced bronchoconstriction, drug iv; assay type: in vivo, guinea-pigs; details: 10 mg/kg, n:5
Protocol: as §1, §2

[5] = system: neurokinin A induced bronchoconstriction; experiment: Neurokinin A induced bronchoconstriction, intratrachea administration; assay type: in vivo, guinea-pigs; details: for Inhibition (%) of neurokinin A response / ED50 mg/kg, inhibition of neurokinin A response: NKA 1 n mol/kg iv; for Effect of intratrachea administration on neurokinin A induced bronchoconstriction (in words): dissolved in DMSO; for Effect of intratrachea administration on neurokinin A induced bronchoconstriction (in words) / ED50 mg/kg, inhibition of neurokinin A response: intratrachea
Protocol: as §1
The method was almost same as mentioned above.

[6] = system: contractile responses of guinea pig trachea induced by substance P (SP); experiment: Contractile response of guinea pig trachea induced by substance P; details: for IC50: read-out: IC50 (M), SP 10^-8 M induced contraction
Protocol: (§3) Tracheal spiral strips were prepared from adult, male, albino Hartley strain guinea pigs (600 g) according to standard technique and placed in jacketed 30 ml glass tissue bath. […] Tracheal strips (2 mm width and 50 mm length) were suspended under a resting tension of 500 mg in 30 ml organ baths containing warm (37° C.) oxygenated (95% O2 : 5% CO2) Tyrode solution of following composition: NaCl 137 mM (8 g/liter), KCl 2.7 mM (0.2 g/liter), CaCl2 ·2H2 O 1.8 mM (0.264 g/liter), MgCl2 ·6H2 O 1.02mM (0.208 g/liter), NaHCO3 11.9 mM (1 g/liter), NaH2 PO4 ·2H2 O 0.42 mM (0.066 g/liter) and glucose 5.5 mM (1 g/liter).

[7] = system: contractile responses of guinea pig trachea induced by neurokinin A (NKA); experiment: Contractile response of guinea pig trachea induced by neurokinin A
Protocol: as §3

[8] = Acute toxicity, single intraperitoneal injection; details: mouse, in vivo, ip, ddY mice, male
Protocol: Acute toxicity of WS-9326A was determined in ddY mice (5 weeks old, male) by a single intraperitoneal injection of graded dose of test compound into 5 mice.

[9] = system: acetic acid induced writhing; experiment: Analgesic action, acetic acid induced writhing; assay type: in vivo; details: male ddY mice; intraperitoneally 15 minutes before acetic acid
Protocol: Ten male ddY strain mice were used par group. To estimate the frequency of writhing syndrome, the animals were observed from 3 to 13 minutes after an intraperitoneal injection of 0.2 ml/10 g of 0.6% acetic acid. […] The frequency of writhing syndrome in the treated animals was compared with that in the non-treated control animals.

[10] = intratrachea 0.03 mg/kg in DMSO, 20 minutes
[11] = intratrachea 0.03 mg/kg in DMSO, 35 minutes
[12] = intratrachea 0.03 mg/kg in DMSO, 50 minutes
[13] = intratrachea 0.03 mg/kg in DMSO, 65 minutes
[14] = intratrachea 0.3 mg/kg in DMSO, 20 minutes
[15] = intratrachea 0.3 mg/kg in DMSO, 35 minutes
[16] = intratrachea 0.3 mg/kg in DMSO, 50 minutes
[17] = intratrachea 0.3 mg/kg in DMSO, 65 minutes

T1 sequence (P30547 whole entry): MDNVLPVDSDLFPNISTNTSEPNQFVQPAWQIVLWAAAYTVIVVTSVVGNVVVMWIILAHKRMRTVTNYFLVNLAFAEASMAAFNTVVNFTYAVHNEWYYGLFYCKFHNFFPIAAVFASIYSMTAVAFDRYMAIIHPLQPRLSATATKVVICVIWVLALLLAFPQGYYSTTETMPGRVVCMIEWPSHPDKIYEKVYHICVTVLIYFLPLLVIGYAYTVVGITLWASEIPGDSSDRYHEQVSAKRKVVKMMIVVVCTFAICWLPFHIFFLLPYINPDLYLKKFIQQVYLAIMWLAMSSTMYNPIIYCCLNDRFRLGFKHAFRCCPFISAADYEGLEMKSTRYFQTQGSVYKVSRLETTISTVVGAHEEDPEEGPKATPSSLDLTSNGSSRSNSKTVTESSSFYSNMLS

CCC/C=C\c1ccccc1/C=C/C(=O)N[C@@H]1C(=O)N(C)[C@@H](Cc2ccc(O)cc2)C(=O)N[C@@H](CC(C)C)C(=O)N[C@H](Cc2ccccc2)C(=O)N[C@@H]([C@H](C)O)C(=O)N[C@@H](CC(N)=O)C(=O)N[C@@H](CO)C(=O)O[C@@H]1C [WS-9326B] ({Cinnamoyl(2-(1Z-pentenyl))}-T[NMeY]L[dF][aThr]NS; ester 1-C)
Solubility ([1]; acetone): Insoluble
Solubility ([1]; chloroform): Insoluble
Solubility ([1]; ethanol): Sparingly Soluble
Solubility ([1]; ethyl acetate): Insoluble
Solubility ([1]; methanol): Soluble
Solubility ([1]; water): Insoluble
IC50 [2]: 8.8e-05 M

CCC/C=C\c1ccccc1/C=C/C(=O)N[C@@H]1C(=O)N(C)/C(=C/c2ccc(O)cc2)C(=O)N[C@@H](CC(C)C)C(=O)N[C@H](Cc2ccccc2)C(=O)N[C@@H]([C@H](C)O)C(=O)N[C@@H](CC(N)=O)C(=O)N[C@@H](CO)C(=O)O[C@@H]1C [WS-9326A] ({Cinnamoyl(2-(1Z-pentenyl))}-T[X1]L[dF][aThr]NS; ester 1-C; N-terminus assumed)
Solubility ([1]; acetone): Sparingly Soluble
Solubility ([1]; chloroform): Insoluble
Solubility ([1]; ethanol): Soluble
Solubility ([1]; ethyl acetate): Sparingly Soluble
Solubility ([1]; methanol): Soluble
Solubility ([1]; water): Insoluble
Inhibition (%) of capsaicin (10 n mol/kg, iv) response ([3]; 2 minutes): 16.6 ± 5.1%
Inhibition (%) of capsaicin (10 n mol/kg, iv) response ([3]; 17 minutes): 40.6 ± 12.2%
Inhibition (%) of capsaicin (10 n mol/kg, iv) response ([3]; 32 minutes): 51.2 ± 10.4%
Inhibition (%) of capsaicin (10 n mol/kg, iv) response ([3]; 47 minutes): 37.2 ± 19.7%
Inhibition (%) of capsaicin (10 n mol/kg, iv) response ([3]; 62 minutes): 47.1 ± 16.7%
Inhibition (%) of neurokinin A (1 n mol/kg, iv) response ([4]; 2 minutes): -16.5 ± 5.6%
Inhibition (%) of neurokinin A (1 n mol/kg, iv) response ([4]; 17 minutes): 30.2 ± 12.9%
Inhibition (%) of neurokinin A (1 n mol/kg, iv) response ([4]; 32 minutes): 45.8 ± 13.8%
Inhibition (%) of neurokinin A (1 n mol/kg, iv) response ([4]; 47 minutes): 55.4 ± 8.1%
Inhibition (%) of neurokinin A (1 n mol/kg, iv) response ([4]; 62 minutes): 49.9 ± 13.4%
Inhibition (%) of neurokinin A response [5, 10]: 32.3%
Inhibition (%) of neurokinin A response [5, 11]: 28.4%
Inhibition (%) of neurokinin A response [5, 12]: 35.6%
Inhibition (%) of neurokinin A response [5, 13]: 35.5%
Inhibition (%) of neurokinin A response [5, 14]: 50.6%
Inhibition (%) of neurokinin A response [5, 15]: 42.4%
Inhibition (%) of neurokinin A response [5, 16]: 44.9%
Inhibition (%) of neurokinin A response [5, 17]: 42.0%
Inhibition (%) of neurokinin A response ([5]; intratrachea 3 mg/kg in DMSO, 20 minutes): 73.4%
Inhibition (%) of neurokinin A response ([5]; intratrachea 3 mg/kg in DMSO, 35 minutes): 79.4%
Inhibition (%) of neurokinin A response ([5]; intratrachea 3 mg/kg in DMSO, 50 minutes): 81.7%
Inhibition (%) of neurokinin A response ([5]; intratrachea 3 mg/kg in DMSO, 65 minutes): 77.7%
Effect of intratrachea administration on neurokinin A induced bronchoconstriction (in words) [5]: highly potent
ED50 mg/kg, inhibition of neurokinin A response ([5]; 20 minutes): 0.23 mg/kg
ED50 mg/kg, inhibition of neurokinin A response ([5]; 35 minutes): 0.29 mg/kg
ED50 mg/kg, inhibition of neurokinin A response ([5]; 50 minutes): 0.19 mg/kg
ED50 mg/kg, inhibition of neurokinin A response ([5]; 65 minutes): 0.24 mg/kg
Inhibition % SP 10^-8 M ([6]; 3 μg/ml): -10%
Inhibition % SP 10^-8 M ([6]; 10 μg/ml): 50%
Inhibition % SP 10^-8 M ([6]; 30 μg/ml): 63%
IC50 [6]: 9.7e-06 M
Inhibition % NKA 10^-9 M ([7]; 3 μg/ml): 44%
Inhibition % NKA 10^-9 M ([7]; 10 μg/ml): 79%
Inhibition % NKA 10^-9 M ([7]; 30 μg/ml): 100%
IC50 ([7]; read-out: IC50 (M), NKA 10^-9 M induced contraction): 3.5e-06 M
LD50 [8]: 250 to 500 mg/kg

CCCCCc1ccccc1CCC(=O)N[C@@H]1C(=O)N(C)/C(=C/c2ccc(O)cc2)C(=O)N[C@@H](CC(C)C)C(=O)N[C@H](Cc2ccccc2)C(=O)N[C@@H]([C@H](C)O)C(=O)N[C@@H](CC(N)=O)C(=O)N[C@@H](CO)C(=O)O[C@@H]1C [Tetrahydro-WS-9326A, tetrahydro-WS-9326A] (X2-T[X1]L[dF][aThr]NS; ester 1-C; N-terminus assumed)
Inhibition (%) of neurokinin A (1 n mol/kg, iv) response ([4]; 2 minutes): 41.0 ± 5.6%
Inhibition (%) of neurokinin A (1 n mol/kg, iv) response ([4]; 17 minutes): 100.0 ± 0.0%
Inhibition (%) of neurokinin A (1 n mol/kg, iv) response ([4]; 32 minutes): 99.2 ± 0.8%
Inhibition (%) of neurokinin A (1 n mol/kg, iv) response ([4]; 47 minutes): 98.4 ± 1.6%
Inhibition (%) of neurokinin A (1 n mol/kg, iv) response ([4]; 62 minutes): 100.0 ± 0.0%
Inhibition (%) of neurokinin A response ([5]; intratrachea 0.003 mg/kg in DMSO, 20 minutes): 5.4%
Inhibition (%) of neurokinin A response ([5]; intratrachea 0.003 mg/kg in DMSO, 35 minutes): 23.5%
Inhibition (%) of neurokinin A response ([5]; intratrachea 0.003 mg/kg in DMSO, 50 minutes): 17.2%
Inhibition (%) of neurokinin A response ([5]; intratrachea 0.003 mg/kg in DMSO, 65 minutes): 12.6%
Inhibition (%) of neurokinin A response [5, 10]: 50.0%
Inhibition (%) of neurokinin A response [5, 11]: 50.9%
Inhibition (%) of neurokinin A response [5, 12]: 51.4%
Inhibition (%) of neurokinin A response [5, 13]: 43.0%
Inhibition (%) of neurokinin A response [5, 14]: 77.7%
Inhibition (%) of neurokinin A response [5, 15]: 75.7%
Inhibition (%) of neurokinin A response [5, 16]: 74.6%
Inhibition (%) of neurokinin A response [5, 17]: 71.1%
Effect of intratrachea administration on neurokinin A induced bronchoconstriction (in words) [5]: highly potent
ED50, acetic acid induced writhing [9]: 5.5 mg/kg
IC50 [6]: 3.1e-06 M
